Values quoted from earlier work in patent US12504433B2, “Methods, systems and kits for in-pen assays” (BRUKER CELLULAR ANALYSIS, INC., priority 2020, dated 2025).

Columns and labels:
[1] = target: IgG
[2] = test system: Fc of hIgG; settings: read-out: Affinity for IgG

In the case of “CPD 1: Protein A-AF594, Pierce Recombinant Protein A (ThermoFisher Cat. # 77674)”, the “Affinity for IgG” value ([1]; stated in words) is given as “nanomolar”.

In the case of “5′-rGp-rGp-rAp-rGp-rGp-fUp-fCp-fCp-rGp-rAp-rAp-rAp-rGp-rGp-rAp-fCp-fUp-fCp-fCp-3′ [CPD 5]”, the Kd [2] is given as 75 nM.

For “DCAWHLGELVWCT [CPD 4, Asp Cys Ala Trp His Leu Gly Glu Leu Val Trp Cys Thr]”, the Kd ([1]; Fc, read-out: Affinity for IgG) is given as 100 nM.
